According to paper PMC11882969 (Nature Communications, 2025):
“And” between values parts separate entries of the source, which are not always exact repeats. Identical values can stand only once.

Target: hCB1 (Homo sapiens, UniProt P21554)
Assay: bioSensAll ebBRET signaling profiling, hCB1
Assay type: cell-based
Design: host or cells: HEK293SL cells, transient PEI transfection
Settings: for Gi1 hCB1 response: Gi1 biosensor; for Gi1 hCB1 / GoB hCB1: single replicate values, FigS6a

Chain of hCB1 (P21554 whole entry): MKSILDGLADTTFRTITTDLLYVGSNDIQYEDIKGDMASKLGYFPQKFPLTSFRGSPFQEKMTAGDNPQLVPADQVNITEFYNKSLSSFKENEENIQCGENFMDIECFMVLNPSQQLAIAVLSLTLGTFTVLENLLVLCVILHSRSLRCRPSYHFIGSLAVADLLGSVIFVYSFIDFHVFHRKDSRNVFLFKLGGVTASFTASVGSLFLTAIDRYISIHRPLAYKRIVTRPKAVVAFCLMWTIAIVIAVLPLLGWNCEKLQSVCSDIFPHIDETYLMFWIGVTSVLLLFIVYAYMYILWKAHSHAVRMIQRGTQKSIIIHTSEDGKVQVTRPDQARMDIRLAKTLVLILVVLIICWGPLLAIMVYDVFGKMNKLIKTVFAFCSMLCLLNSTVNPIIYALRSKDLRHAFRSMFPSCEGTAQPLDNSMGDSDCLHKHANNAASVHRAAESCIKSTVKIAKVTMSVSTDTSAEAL

SMILES: COC(=O)[C@@H]1[C@@H]2CCC[C@@H]2CN1C(=O)c1cc(C)n(-c2cccc(C(F)(F)F)c2)n1 [‘6439]
- Gi1 hCB1 response (Log [Compound] (M) -4.22186): 151.018
- Gi1 hCB1 response (Log [Compound] (M) -4.63927): 115.678
- Gi1 hCB1 response (Log [Compound] (M) -5.05788): 127.496
- Gi1 hCB1 response (Log [Compound] (M) -5.47381): 106.412
- Gi1 hCB1 response (Log [Compound] (M) -5.89285): 85.038
- Gi1 hCB1 response (Log [Compound] (M) -6.31878): 82.8446
- Gi1 hCB1 response (Log [Compound] (M) -6.72585): 60.217
- Gi1 hCB1 response (Log [Compound] (M) -7.14267): 58.225
- Gi1 hCB1 response (Log [Compound] (M) -7.55284): 19.617
- Gi1 hCB1 response (Log [Compound] (M) -8): 16.8865
- Gi1 hCB1 response (Log [Compound] (M) -8.22186): 14.8945
- Gi1 hCB1 response (Log [Compound] (M) -8.39794): 2.361
- Gi1 hCB1 response (Log [Compound] (M) -8.68787): 6.703
- Gi1 hCB1 response (Log [Compound] (M) -9.15521): 0.8614
- Gi1 hCB1 response (Log [Compound] (M) -9.61989): -7.912
- Gi1 hCB1 response (Log [Compound] (M) -10.0969): -33.897
- Gi1 hCB1 response (Log [Compound] (M) -10.5529): -6.905
- Gi1 hCB1 response (Log [Compound] (M) -11.0177): 0.7271
- Gi1 hCB1 response (Log [Compound] (M) -11.4949): -12.7913
- Gi1 hCB1 response (Log [Compound] (M) -11.9208): -11.6498
- Gi1 hCB1 response (Log [Compound] (M) -12.3979): -8.158
- Gi1 hCB1 response (Log [Compound] (M) -12.8861): -13.8656
- Gi1 hCB1 response (Log [Compound] (M) -13, individual replicate values): 6.815 and -3.369
- Gi1 hCB1 (Log [Compound] (M) -4.22186): 102.871
- GoB hCB1 (Log [Compound] (M) -4.22186): 99.959
- Gi1 hCB1 (Log [Compound] (M) -4.63927): 91.1085
- GoB hCB1 (Log [Compound] (M) -4.63927): 101.488
- Gi1 hCB1 (Log [Compound] (M) -5.05788): 91.2935
- GoB hCB1 (Log [Compound] (M) -5.05788): 96.0026
- Gi1 hCB1 (Log [Compound] (M) -5.47381): 93.4364
- GoB hCB1 (Log [Compound] (M) -5.47381): 100.139
- Gi1 hCB1 (Log [Compound] (M) -5.89285): 89.3202
- GoB hCB1 (Log [Compound] (M) -5.89285): 94.2762
- Gi1 hCB1 (Log [Compound] (M) -6.31878): 88.4414
- GoB hCB1 (Log [Compound] (M) -6.31878): 89.4207
- Gi1 hCB1 (Log [Compound] (M) -6.72585): 73.3178
- GoB hCB1 (Log [Compound] (M) -6.72585): 75.088
- Gi1 hCB1 (Log [Compound] (M) -7.14267): 49.9
- GoB hCB1 (Log [Compound] (M) -7.14267): 54.2273
- Gi1 hCB1 (Log [Compound] (M) -7.55284): 26.2355
- GoB hCB1 (Log [Compound] (M) -7.55284): 30.9029
- Gi1 hCB1 (Log [Compound] (M) -8): 8.645
- GoB hCB1 (Log [Compound] (M) -8): 13.9266
- Gi1 hCB1 (Log [Compound] (M) -8.22186): 5.331
- GoB hCB1 (Log [Compound] (M) -8.22186): 0.7628
- Gi1 hCB1 (Log [Compound] (M) -8.39794): 4.128
- GoB hCB1 (Log [Compound] (M) -8.39794): 8.262
- Gi1 hCB1 (Log [Compound] (M) -8.68787): 4.853
- GoB hCB1 (Log [Compound] (M) -8.68787): -0.2442
- Gi1 hCB1 (Log [Compound] (M) -9.15521): 1.029
- GoB hCB1 (Log [Compound] (M) -9.15521): -1.989
- Gi1 hCB1 (Log [Compound] (M) -9.61989): 0.2894
- GoB hCB1 (Log [Compound] (M) -9.61989): -0.46
- Gi1 hCB1 (Log [Compound] (M) -10.0969): -1.6068
- GoB hCB1 (Log [Compound] (M) -10.0969): -4.219
- Gi1 hCB1 (Log [Compound] (M) -10.5529): 0.5669
- GoB hCB1 (Log [Compound] (M) -10.5529): -0.6758
